Assay results as given in patent US20240417405A1, “Substituted Spiro Derivatives” (Janssen Pharmaceutica NV, priority 2021, published 2024).

Key:
[1] = target: T1, menin/MLL (terbium chelate-labeled menin, FITC-MBM1 peptide) (Homo sapiens, UniProt O00255, T541A); experiment: Menin/MLL homogenous time-resolved fluorescence (HTRF) assay; format: binding; conditions: 30 min incubation
T1 construct: Menin (a.a 1-610-6xhis tag)
T1 sequence (O00255 with tags, fused parts or gaps T541A): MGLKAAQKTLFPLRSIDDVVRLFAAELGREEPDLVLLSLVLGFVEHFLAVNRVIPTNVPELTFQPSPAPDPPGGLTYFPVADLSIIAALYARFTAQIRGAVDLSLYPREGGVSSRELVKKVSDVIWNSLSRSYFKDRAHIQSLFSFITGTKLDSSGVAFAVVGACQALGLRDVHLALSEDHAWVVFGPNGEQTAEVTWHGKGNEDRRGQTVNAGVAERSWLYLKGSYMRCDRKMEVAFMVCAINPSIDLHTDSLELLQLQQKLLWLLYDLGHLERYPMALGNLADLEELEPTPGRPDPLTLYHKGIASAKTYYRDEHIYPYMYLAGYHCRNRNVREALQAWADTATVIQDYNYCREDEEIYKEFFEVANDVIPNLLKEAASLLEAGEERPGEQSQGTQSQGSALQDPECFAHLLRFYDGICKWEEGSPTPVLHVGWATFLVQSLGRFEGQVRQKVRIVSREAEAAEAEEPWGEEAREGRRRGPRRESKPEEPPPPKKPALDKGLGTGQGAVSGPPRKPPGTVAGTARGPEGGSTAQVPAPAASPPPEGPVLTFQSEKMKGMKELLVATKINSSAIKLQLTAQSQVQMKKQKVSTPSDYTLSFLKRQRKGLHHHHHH
Description: 1) Menin/MLL Homogenous Time-Resolved Fluorescence (HTRF) Assay
To an untreated, white 384-well microtiter plate was added 40 nL 200× test compound in DMSO and 4 μL 2× terbium chelate-labeled menin (vide infra for preparation) in assay buffer (40 mM Tris.HCl, pH 7.5, 50 mM NaCl, 1 mM DTT (dithiothreitol) and 0.05% Pluronic F-127). After incubation of test compound and terbium chelate-labeled menin for 30 min at ambient temperature, 4 μL 2× FITC-MBM1 peptide (FITC-β-alanine-SARWRFPARPGT-NH2 (SEQ ID NO: 3)) (“FITC” means fluorescein isothiocyanate) in assay buffer was added, the microtiter plate centrifuged at 1000 rpm for 1 min and the assay mixtures incubated for 15 min at ambient temperature. The relative amount of menin FITC-MBM1 complex present in an assay mixture is determined by measuring the homogenous time-resolved fluorescence (HTRF) of the terbium/FITC donor/acceptor fluorophore pair using an EnVision microplate reader (ex. 337 nm/terbium em. 490 nm/FITC em. 520 nm) at ambient temperature. The degree of fluorescence resonance energy transfer (the HTRF value) is expressed as the ratio of the fluorescence emission intensities of the FITC and terbium fluorophores (F^em 520 nm/F^em 490 nm). The final concentrations of reagents in the binding assay are 200 pM terbium chelate-labeled menin, 75 nM FITC-MBM1 peptide and 0.5% DMSO in assay buffer. Dose-response titrations of test compounds are conducted using an 11 point, four-fold serial dilution scheme, starting typically at 10 μM.
Compound potencies were determined by first calculating % inhibition at each compound concentration according to equation 1:
% inhibition=((HC−LC)−(HTRF^compound−LC))/(HC−LC))*100 (Eqn 1)
Where LC and HC are the HTRF values of the assay in the presence or absence of a saturating concentration of a compound that competes with FITC-MBM1 for binding to menin, and HTRF^compound is the measured HTRF value in the presence of the test compound. HC and LC HTRF values represent an average of at least 10 replicates per plate.
% inhibition=Bottom+(Top−Bottom)/(1+10^((logIC50−log[cmpd])*h)) (Eqn 2)
Where Bottom and Top are the lower and upper asymptotes of the dose-response curve, respectively, IC50 is the concentration of compound that yields 50% inhibition of signal and h is the Hill coefficient. IC50 values below 0.1 nM in the HTRF assay were reported as 0.1 nM in the Table below (detection limit).
Preparation of Terbium cryptate labeling of Menin: Menin (a.a 1-610-6xhis tag (“6xhis tag” disclosed as SEQ ID NO: 2), 2.3 mg/mL in 20 mM Hepes (2-[4-(2-Hydroxyethyl)-1-piperazinyl]ethane sulfonic acid), 80 mM NaCl, 5 mM DTT (Dithiothreitol), pH 7.5) was labeled with terbium cryptate as follows. 200 μg of Menin was buffer exchanged into 1× Hepes buffer. 6.67 μM Menin was incubated with 8-fold molar excess NHS (N-hydroxysuccinimide)-terbium cryptate for 40 minutes at room temperature. Half of the labeled protein was purified away from free label by running the reaction over a NAP5 column with elution buffer (0.1 M Hepes, pH 7+0.1% BSA (bovine serum albumin)). The other half was eluted with 0.1 M phosphate buffered saline (PBS), pH7. 400 μl of eluent was collected for each, aliquoted and frozen at −80° C. The final concentration of terbium-labeled Menin protein was 115 μg/mL in Hepes buffer and 85 μg/mL in PBS buffer, respectively.

MOLM14 cells = experiment: Proliferation assay, spheroid-like growth, MOLM14 (MLL-AF9 rearranged); format: cell-based, human; conditions: Homo sapiens, MOLM-14, 192 h, 8 days, confluence as measure of spheroid size, read-out: spheroid assay_OneTime MOLM14 IC50
Description: The anti-proliferative effect of menin/MLL protein/protein interaction inhibitor test compounds was assessed in human leukemia cell lines. The cell line MOLM14 harbors a MLL translocation and expresses the MLL fusion proteins MLL-AF9, respectively, as well as the wildtype protein from the second allele. […] KO-52 was used as a control cell line containing two MLL (KMT2A) wildtype alleles in order to exclude compounds that display general cytotoxic effects.
MOLM14 cells were cultured in RPMI-1640 (Sigma Aldrich) supplemented with 10% heat-inactivated fetal bovine serum (HyClone), 2 mM L-glutamine (Sigma Aldrich) and 50 μg/ml gentamycin (Gibco). KO-52 cell lines were propagated in alpha-MEM (Sigma Aldrich) supplemented with 20% heat-inactivated fetal bovine serum (HyClone), 2 mM L-glutamine (Sigma Aldrich) and 50 μg/ml gentamycin (Gibco).
In order to assess the anti-proliferative effects, 200 MOLM14 cells, or 300 KO-52 cells were seeded in 200 μl media per well in 96-well round bottom, ultra-low attachment plates (Costar, catalogue number 7007). Cell seeding numbers were chosen based on growth curves to ensure linear growth throughout the experiment. Test compounds were added at different concentrations and the DMSO content was normalized to 0.3%. Cells were incubated for 8 days at 37° C. and 5% CO2. Spheroid like growth was measured in real-time by live-cell imaging (IncuCyteZOOM, Essenbio, 4× objective) acquiring images at day 8. Confluence (%) as a measure of spheroid size was determined using an integrated analysis tool.
In order to determine the effect of the test compounds over time, the confluence in each well as a measure of spheroid size, was calculated. Confluence of the highest dose of a reference compound was used as baseline for the LC (Low control) and the confluence of DMSO treated cells was used as 0% cytotoxicity (High Control, HC).
Absolute IC50 values were calculated as percent change in confluence as follows:
LC=Low Control: cells treated with e.g. 1 μM of the cytotoxic agent staurosporin, or e.g. cells treated with a high concentration of an alternative reference compound
GraphPad Prism (version 7.00) was used to calculate the IC50. Dose-response equation was used for the plot of % Effect vs Log 10 compound concentration with a variable slope and fixing the maximum to 100% and the minimum to 0%.

IC50 [1] [nM]	IC50 (MOLM14 cells) [nM]	SMILES
0.07	17	CCOC(=O)c1sc(N[C@H]2C[C@@H](C(C(C)C)N3CC4(CCN(c5ncnnc5Oc5ccc(F)cc5-c5cncnc5C5CC5)C4)C3)C2)nc1C (single isomer, unassigned) [Compound 483]
0.09	< 1.8	Cc1cn2ccc(N[C@H]3C[C@@H](C(C(C)C)N4CC5(CCN(c6ncnnc6Oc6ccc(F)cc6-c6cncnc6C6CC6)C5)C4)C3)cc2n1 (single isomer, unassigned) [Compound 426]
0.5	42	CC(C)C([C@H]1C[C@@H](N2CC3(COC3)C2)C1)N1CC2(CCN(c3ncnnc3Oc3ccc(F)cc3-c3ncc(C#N)cc3C3CC3)C2)C1 (stereo partly drawn) [Compound 140]
0.3	180	CC(C)[C@H]([C@H]1C[C@@H](N2CC3(CCCO3)C2)C1)N1CC2(CCN(c3ncnnc3Oc3ccc(F)cc3-c3cncnc3C3CC3)C2)C1 (single isomer, unassigned) [Compound 246]
4.8	1040	CC(C)C([C@H]1C[C@@H](Nc2ncccn2)C1)N1CC2(CCN(c3ncnnc3Oc3ccc(F)cc3-c3cncnc3C3CC3)C2)C1 (stereo partly drawn) [Compound 192]
0.17	4	CC(C)[C@H]([C@H]1C[C@@H](Nc2cnnc(-c3ccn[nH]3)c2)C1)N1CC2(CCN(c3ncnnc3Oc3ccc(F)cc3-c3cncnc3C3CC3)C2)C1 (single isomer, unassigned) [Compound 424]
1	–	CC(=O)N1CCN([C@H]2C[C@H]([C@H](C(C)C)N3CC4(CCN(c5ncnnc5Oc5ccc(F)cc5-c5cnncc5C5CC5)C4)C3)C2)CC1 (single isomer, unassigned) [Compound 105]
1.6	130	CC(C)[C@@H]([C@H]1C[C@@H](N2C[C@H]3COC[C@H]3C2)C1)N1CC2(CCN(c3ncnnc3Oc3ccc(F)cc3-c3cncnc3C3CC3)C2)C1 (single isomer, unassigned) [Compound 244]
0.29	–	CNC(=O)c1nccc(N[C@H]2C[C@@H]([C@@H](C(C)C)N3CC4(CCN(c5ncnnc5Oc5ccc(F)cc5-c5cncnc5C5CC5)C4)C3)C2)n1 (single isomer, unassigned) [Compound 457]
0.6	–	CC(=O)N[C@H]1C[C@@H](C(C(C)C)N2CC3(CCN(c4ncnnc4Oc4ccc(F)cc4-c4ccnnc4C4CC4)C3)C2)C1 (stereo partly drawn) [Compound 182]
0.58	–	Cc1noc(C2CC2)c1-c1cc(F)ccc1Oc1nncnc1N1CCC2(C1)CN([C@H](C(C)C)[C@H]1C[C@@H](NC(=O)OC(C)(C)C)C1)C2 [Compound 504, tert-butyl N-[3-[(1R)-1-[7-[6-[2-(5-cyclopropyl-3-methyl-isoxazol-4-yl)-4-fluoro-phenoxy]-1,2,4-triazin-5-yl]-2,7-diazaspiro[3.4]octan-2-yl]-2-methyl-propyl]cyclobutyl]carbamate]
0.5	–	CC(C)[C@@H](C1CN(CC2COC2)C1)N1CC2(CCN(c3ncnnc3Oc3ccc(F)cc3-c3cncnc3C3CC3)C2)C1 (single isomer, unassigned) [Compound 353]
0.22	–	COC(=O)c1nccc(N[C@H]2C[C@@H](C(C(C)C)N3CC4(CCN(c5ncnnc5Oc5ccc(F)cc5-c5cncnc5C5CC5)C4)C3)C2)n1 (single isomer, unassigned) [Compound 489]
4.9	–	CC(C)[C@H]([C@H]1C[C@@H](N2CC3(CCC(=O)N3C)C2)C1)N1CC2(CCN(c3ncnnc3Oc3ccc(F)cc3-c3cncnc3C3CC3)C2)C1 (single isomer, unassigned) [Compound 316]
0.18	–	Cc1noc(C2CC2)c1-c1cc(F)ccc1Oc1nncnc1N1CCC2(C1)CN([C@H](C(C)C)[C@H]1C[C@@H](N(C)C)C1)C2 (single isomer, unassigned) [Compound 503]
0.16	–	C[C@@H]([C@H]1C[C@@H](NC(=O)C2CC2)C1)N1CC2(CCN(c3ncnnc3Oc3ccc(F)cc3-c3cncnc3C3CC3)C2)C1 (single isomer, unassigned) [Compound 444]
0.06	–	CNC(=O)c1nc(N[C@H]2C[C@@H](C(C(C)C)N3CC4(CCN(c5ncnnc5Oc5ccc(F)cc5-c5cncnc5C5CC5)C4)C3)C2)oc1C (single isomer, unassigned) [Compound 459]
0.53	–	C[C@@H]([C@H]1C[C@@H](NC(=O)C2(F)CC2)C1)N1CC2(CCN(c3ncnnc3Oc3ccc(F)cc3-c3cncnc3C3CC3)C2)C1 (single isomer, unassigned) [Compound 456]
0.7	–	CC(C)C(C1CCN(CC2COC2)CC1)N1CC2(CCN(c3ncnnc3Oc3ccc(F)cc3-c3nccnc3C3CC3)C2)C1 (stereo not drawn) [Compound 202]

SMILES	IC50 [1] [nM]	IC50 (MOLM14 cells) [nM]
Cc1noc(C2CC2)c1-c1cc(F)ccc1Oc1nncnc1N1CCC2(C1)CN([C@H](C(C)C)C1CC(NC(=O)OC(C)(C)C)C1)C2 (stereo partly drawn) [Compound 505, tert-butyl N-[3-[(1R)-1-[7-[6-[2-(5-cyclopropyl-3-methyl-isoxazol-4-yl)-4-fluoro-phenoxy]-1,2,4-triazin-5-yl]-2,7-diazaspiro[3.4]octan-2-yl]-2-methyl-propyl]cyclobutyl]carbamate]	0.54	–
